# In publication PMC3717983 (Journal of medicinal chemistry, 2013):
# Values joined by “and” are separate entries in the source; they are usually repeats but may differ in a detail not shown here. Equal entries are not always repeated. Marks after values point to notes of the source that are not given here.
# What was measured:
# human α-thrombin = human α-thrombin (Homo sapiens, UniProt P00734); assay type: biochemical; details: for HS (Hill slope) / logIC50: pH 7.4, 25 °C, Spectrozyme TH; for fold decrease in potency from 9a: ratio of IC50s
# thrombin = thrombin (Homo sapiens, UniProt P00734); test: Sequential inhibition of thrombin by 9a and PPACK; assay type: biochemical; details: PPACK added following inhibition by 9a (Figure S10)
# Water solubility = assay type: physicochemical; details: devoid of any sulfate group
Compound,HS (Hill slope) (human α-thrombin),logIC50 (human α-thrombin),fold decrease in potency from 9a (human α-thrombin),other results
CCOC(=O)c1c(C)oc2cc(OC)c(OCc3oc4cc(OC)c(OCc5oc6cc(OC)c(OS(=O)(=O)[O-])cc6c5C(=O)OC)cc4c3C(=O)OCC)cc12.[Na+] [9b],1.0 ^c,−5.69 ± 0.13,,
CCOC(=O)c1c(C)oc2cc(OC)c(OCc3oc4cc(OC)c(OCc5oc6cc(OC)c(OS(=O)(=O)[O-])cc6c5C(=O)OC(C)(C)C)cc4c3C(=O)OCC)cc12.[Na+] [9c],2.1 ± 0.5,−3.78 ± 0.07,,
CCOC(=O)c1c(C)oc2cc(OC)c(OCc3oc4cc(OC)c(OCc5oc6cc(OC)c(OS(=O)(=O)[O-])cc6c5C(=O)OCCOC)cc4c3C(=O)OCC)cc12.[Na+] [9d],,,> 500 fold,
CCOC(=O)c1c(C)oc2cc(OC)c(OCc3oc4cc(OC)c(OCc5oc6cc(OCC)c(OS(=O)(=O)[O-])cc6c5C(=O)OCC)cc4c3C(=O)OCC)cc12.[Na+] [9f],2.3 ± 1.2,−5.23 ± 0.11,8.6 fold,
CCOC(=O)c1c(C)oc2cc(OC)c(OCc3oc4cc(OC)c(OCc5oc6cc(OC(C)C)c(OS(=O)(=O)[O-])cc6c5C(=O)OCC)cc4c3C(=O)OCC)cc12.[Na+] [9g],,~ −4.0 ^d,148 fold,
"N=C(N)NCCC[C@H](NC(=O)[C@@H]1CCCN1C(=O)[C@H](N)Cc1ccccc1)C(=O)CCl [PPACK, D-Phe-Pro-Arg-chloromethylketone]",,,,thrombin activity after sequential inhibition (thrombin): totally inactive
CCOC(=O)c1c(COc2cc3c(C(=O)OCC)c(COc4cc5c(C(=O)O)c(C)oc5cc4OC)oc3cc2OC)oc2cc(OC)c(O)cc12 [compound 12],,,,water solubility (Water solubility): fairly good water solubility
C=CCOC(=O)c1c(C)oc2cc(OC)c(OCc3oc4cc(OC)c(OCc5oc6cc(OC)c(OS(=O)(=O)[O-])cc6c5C(=O)OCC)cc4c3C(=O)OCC)cc12.[Na+] [compound 13],3.5 ± 1.2,−4.51 ± 0.06,46 fold,
CCOC(=O)c1c(COc2cc3c(C(=O)O)c(C)oc3cc2OC)oc2cc(OC)c(OCc3oc4cc(OC)c(OS(=O)(=O)[O-])cc4c3C(=O)OCC)cc12.[Na+] [compound 14],1.0 ^c,−4.18 ± 0.17,,fold reduction in potency from 13 (human α-thrombin; allyl ester to carboxylic acid): 2 fold
CCOC(=O)c1c(C)oc2cc(OC)c(OCc3oc4cc(OC)c(OCc5oc6cc(OC)c(OCc7oc8cc(OC)c(OS(=O)(=O)[O-])cc8c7C(=O)OCC)cc6c5C(=O)OCC)cc4c3C(=O)OCC)cc12.[Na+] [compound 17],1.0 ^c,−3.80 ± 0.15,~236 fold and 225 fold,
CCOC(=O)c1c(C)oc2cc(OC)c(OCc3oc4cc(OC)c(OCc5oc6cc(OS(=O)(=O)[O-])c(OC)cc6c5C(=O)OCC)cc4c3C(=O)OCC)cc12.[Na+] [compound 23],1.2 ± 0.3,−3.81 ± 0.13,,
